Laboratory results as given in patent US4820834A, “Benzodiazepine analogs” (priority 1987, dated 1989).
Structures can show the parent of a compound that is named as a salt. Where two headings read alike, the source gives them in different places.

What was measured:
[1] = target: T1, CCK receptor (pancreas) (Rattus norvegicus, UniProt P30551); test: CCK Receptor Binding (Pancreas): inhibition of ^125 I-CCK-33 binding; design: species or system Male Sprague-Dawley rats; details: rat pancreas membranes, ^125 I-CCK-33, 37° C., 30 minutes
T1 construct: The whole pancreas was dissected free of fat tissue and was homogenized; from tissue; host or cells: rat pancreas membranes (Sprague-Dawley)
T1 sequence (P30551 1-444): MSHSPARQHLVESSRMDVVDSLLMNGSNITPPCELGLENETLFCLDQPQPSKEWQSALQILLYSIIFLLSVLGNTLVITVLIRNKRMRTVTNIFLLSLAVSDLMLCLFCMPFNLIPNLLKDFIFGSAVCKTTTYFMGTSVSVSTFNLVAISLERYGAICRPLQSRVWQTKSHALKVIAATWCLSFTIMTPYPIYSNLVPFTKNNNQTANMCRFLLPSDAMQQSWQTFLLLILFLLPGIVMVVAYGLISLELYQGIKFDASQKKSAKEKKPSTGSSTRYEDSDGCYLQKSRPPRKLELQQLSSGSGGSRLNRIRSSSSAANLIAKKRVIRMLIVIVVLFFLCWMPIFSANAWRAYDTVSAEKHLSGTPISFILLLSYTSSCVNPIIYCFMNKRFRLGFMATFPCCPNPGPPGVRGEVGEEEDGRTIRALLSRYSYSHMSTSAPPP
Outline: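 Rat (male Sprague-Dawley) pancreatic membranes in 50 mM Tris HCl pH 7.7 with DTT, bacitracin, PMSF and o-phenanthroline; ^125I-Bolton Hunter-labelled CCK-33 as radioligand. Incubation 30 min at 37° C, separation by centrifugation, pellet gamma-counted; Scatchard analysis by diluting ^125I-CCK-33 with increasing CCK-33.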

[2] = target: T2, CCK receptor (brain, cerebral cortex) (Cavia porcellus, UniProt H0VZC5); test: biochemical; type: binding, Male Hartley guinea pigs; details: guinea pig cerebral cortex, ^125 I-CCK-33, 25° C., 2 hours
T2 construct: Cerebral cortex was dissected and used as a receptor source; from tissue; host or cells: guinea pig cerebral cortex membranes (male Hartley)
T2 sequence (H0VZC5 1-426): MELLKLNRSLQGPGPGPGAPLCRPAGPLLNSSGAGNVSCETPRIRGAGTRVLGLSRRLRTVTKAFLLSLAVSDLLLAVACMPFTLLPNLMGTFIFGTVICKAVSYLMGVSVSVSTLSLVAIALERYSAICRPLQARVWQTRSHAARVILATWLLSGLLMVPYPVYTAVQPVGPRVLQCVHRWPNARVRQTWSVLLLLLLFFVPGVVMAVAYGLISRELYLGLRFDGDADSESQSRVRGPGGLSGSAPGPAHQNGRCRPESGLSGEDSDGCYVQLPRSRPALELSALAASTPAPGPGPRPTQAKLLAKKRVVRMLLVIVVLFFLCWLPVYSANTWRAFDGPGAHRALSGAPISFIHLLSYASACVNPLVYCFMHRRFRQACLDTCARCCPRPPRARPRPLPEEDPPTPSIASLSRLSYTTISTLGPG
Outline: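 Guinea pig cerebral cortex homogenate as receptor source, with radiolabeled CCK-33 in HEPES buffer containing MgCl2, bacitracin, EGTA and 0.4% BSA. Incubation 2 h at 25°C; bound ligand pelleted by centrifugation and gamma-counted.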

[3] = target: T3, Gastrin receptor (gastric glands) (Cavia porcellus, UniProt H0VZC5); test: Gastrin Receptor Binding in Guinea Pig Gastric Glands; design: species or system guinea pig (male Hartley); details: 25° C., 30 minutes
T3 construct: The washed guinea pig gastric glands prepared as above were resuspended; from tissue; host or cells: guinea pig gastric mucosal glands (male Hartley)
T3 sequence (H0VZC5 1-426): T2 sequence (H0VZC5 1-426)

[4] = read-out: IC50 ^125 I-CCK Brain
[5] = ^125 I-gastrin, read-out: IC50 ^125 I-Gastrin Gastric Glands
[6] = read-out: IC50 ^125 I-CCK Pancreas
[7] = IC50 ^125 I-Gastrin Gastric Glands

| Structure (SMILES) | IC50 ([1]; IC50 ^125 I-CCK Pancreas) | IC50 [2, 4] | IC50 [3, 5] | IC50 [1, 6] | IC50 ([2]; IC50 ^125 I-CCK Brain) | IC50 [3, 7] |
| --- | --- | --- | --- | --- | --- | --- |
| CCCCNC(=O)CN1C(=O)C(NC(=O)OCc2ccccc2)N=C(c2ccccc2)c2ccccc21 (stereo not drawn) [Example 213, {2,3-Dihydro-2-oxo-1-[2-oxo-2-(butylamino)ethyl]-5-phenyl-1H-1,4-benzodiazepin-3-yl}-carbamic acid phenylmethyl ester] | 2.1 µM | 0.38 µM | 0.28 µM | – | – | – |
| CCOC(=O)CN1C(=O)C(NC(=O)c2cc3ccccc3[nH]2)N=C(c2ccccc2F)c2ccccc21 (stereo not drawn) [Example 214, 5-(2-Fluorophenyl)-2,3-dihydro-3-((1H-indol-2-ylcarbonyl)amino)-2-oxo-1H-1,4-benzodiazepine-1-acetic acid ethyl ester] | – | – | – | 0.003 µM | 0.22 µM | 0.12 µM |
| CCNC(=O)CN1C(=O)C(NC(=O)OCc2ccccc2)N=C(c2ccccc2)c2ccccc21 (stereo not drawn) [Example 215] | 4.8 µM | 1.8 µM | 0.56 µM | – | – | – |
| CN1C(=O)C(NC(=O)c2ccc(Br)cc2)N=C(c2ccccc2)c2ccccc21 (stereo not drawn) [Example 216, 4-Bromo-N-(2,3-dihydro-1-methyl-2-oxo-5-phenyl-1H-1,4-benzodiazepin-3-yl)-benzamide] | – | – | 1.7 µM | 0.001 µM | 2.4 µM | – |
| CN1C(=O)C(NC(=O)Nc2ccc(Cl)cc2)N=C(c2ccccc2)c2ccccc21 (stereo not drawn) [Example 217] | – | – | 0.022 µM | 0.051 µM | 0.023 µM | – |
| CN1C(=O)[C@@H](NC(=O)c2ccc(C(F)(F)F)cc2)N=C(c2ccccc2F)c2ccccc21 [Example 219, (S)-N-(5-(2-Fluorophenyl)-2,3-dihydro-1-methyl-2-oxo-1H-1,4-benzodiazepin-3-yl)-4-(trifluoromethyl)-benzamide] | 0.0005 µM | – | 0.44 µM | – | 1.4 µM | – |
| O=C(CN1C(=O)C(NC(=O)Nc2ccc(Cl)cc2)N=C(c2ccccc2)c2ccccc21)NCc1ccccc1 (stereo not drawn) [Example 220] | – | 0.1 µM | 0.15 µM | 2.4 µM | – | – |
| CCN(CC)C(=O)CN1C(=O)C(NC(=O)Nc2ccc(Cl)cc2)N=C(c2ccccc2)c2ccccc21 (stereo not drawn) [Example 221, 3-((((4-Chlorophenyl)amino)carbonyl)amino)-N,N-diethyl-2,3-dihydro-2-oxo-5-phenyl-1H-1,4-benzodiazepine-1-acetamide] | – | 0.0006 µM | 0.002 µM | 0.4 µM | – | – |
| CCN(CC)C(=O)CN1C(=O)C(NC(=O)OCc2ccccc2)N=C(c2ccccc2)c2ccccc21 (stereo not drawn) [Example 222] | 2.2 µM | 0.15 µM | 0.23 µM | – | – | – |
| CCCCCc1ccc(C(=O)NC2N=C(c3ccccc3F)c3ccccc3N(C)C2=O)cc1 (stereo not drawn) [Example 223, N-(5-(2-Fluorophenyl)-2,3-dihydro-1-methyl-2-oxo-1H-1,4-benzodiazepin-3-yl)-4-pentylbenzamide] | 0.14 µM | – | – | – | > 100 µM | > 100 µM |
| CCNC(=O)CN1C(=O)C(NC(=O)Nc2ccc(Cl)cc2)N=C(c2ccccc2)c2ccccc21 (stereo not drawn) [Example 224, 3-((((4-Chlorophenyl)amino)carbonyl)amino)-N-ethyl-2,3-dihydro-2-oxo-5-phenyl-1H-1,4-benzodiazepine-1-acetamide] | – | 0.011 µM | 0.025 µM | 2.1 µM | – | – |
| CN1C(=O)C(NC(=O)c2ccc(C(C)(C)C)cc2)N=C(c2ccccc2F)c2ccccc21 (stereo not drawn) [Example 226, 4-(1,1-Dimethylethyl)-N-(5-(2-fluorophenyl)-2,3-dihydro-1-methyl-2-oxo-1H-1,4-benzodiazepin-3-yl)-benzamide] | < 0.1 µM | 2.3 µM | 6.4 µM | – | – | – |
| CC(C)CC(N)C(=O)N1CC(CC2N=C(c3ccccc3)c3ccccc3NC2=O)c2ccccc21 (stereo not drawn) [Example 227, 1-(2-Amino-4-methyl-1-oxopentyl)-3-((2,3-dihydro-2-oxo-5-phenyl-1H-1,4-benzodiazepin-3-yl)methyl)-2,3-dihydro-1H-indole hydrochloride] | 6.6 µM | – | – | – | 50 µM | > 100 µM |
